What was measured:
Type in all cases: cell-based, human
[1] = system: iNeurons from sPD patients; experiment: Mitochondrial membrane potential (MMP) in iNeurons from sPD patients; details: for EC50: Homo sapiens, sPD patient iNeurons, dosing every 3 days for last 12 days of differentiation; for MMP normalisation (% of controls): sPD patient iNeurons treated, untreated sPD patients 52
Method: (§1) The fibroblasts lines and iNPC lines have previously been characterised and published in Carling et al, 2020.
(§2) Briefly, iNPCs are plated in a 6-well plate and cultured for 2 days in DMEM/F-12 medium with Glutamax™ supplemented with 1% NEAA, 2% B27 (Gibco) and 2.5 μM of DAPT. On day 3, DAPT is removed and the medium is supplemented with 1 μM smoothened agonist (SAG) and FGF8 (75 ng/ml) for additional 10 days. Neurons are replated at this stage. Subsequently SAG and FGF8 are withdrawn and replaced with BDNF (30 ng/ml), GDNF (30 ng/ml), TGF-b3 ([…]) and dcAMP (2 mM, Sigma) for 15 days, as previously described Schwartzentruber et al, 2020 and Carling et al, 2020. Dopaminergic neurons were treated with compounds at concentrations of 0.1 nM, 1 nM, 3 nM, 10 nM, 30 nM and 100 nM dosing every 3 days for the last 12 days of differentiation.
(§3) iNeurons were treated every 3 days for the last 12 days of the differentiation protocol. Cells are plated in 96 well plates; for live imaging cells are incubated for one hour at 37° C. with 80 nM tetramethlyrhodamine (TMRM), 1 μM LysoTracker® Green (Invitrogen) and Hoechst Stain solution (Sigma) at 1 μM before imaging using Opera Phenix™. Cellular ATP measurements are undertaken using ATPlite kit (Perkin Elmer) as per manufacturer's instructions. Mitochondrial reactive oxygen species generation was assessed using mitochondrial NpFR2 (probe; a kind gift from Dr Liz New, University of Sydney, Australia) at 20 μM and Hoechst stain solution at 1 μM for 30 mins at 37° C., then the dyes are removed and cells images using Opera Phenix™. Images generated from the live imaging experiments were analysed using Harmony® (Perkin Elmer software). We developed protocols in order to segment nucleus, cell boundary and processes, mitochondria, lysosomes, autophagosomes. We only analysed the z projection images collected from the z stacks.

[2] = system: sporadic PD patient fibroblasts; experiment: Cellular ATP levels in sporadic PD patient fibroblasts, full ATP assay; details: Homo sapiens, Fibroblast, 24 h, 3 sporadic PD patient fibroblasts
Method: (§4) Primary fibroblast cells were cultured continuously in Glucose based medium (high glucose (4500 mg/L) Dulbecco's Modified Eagle's medium (DMEM; Sigma-Aldrich) supplemented with 10% fetal bovine serum (Sigma-Aldrich), 100 IU/mL penicillin, 100 μg/mL streptomycin (Lonza), 1 mM sodium pyruvate (Sigma-Aldrich) and 50 μg/mL uridine (Sigma-Aldrich)). Unless otherwise stated, 24 hours prior to analysis, the Glucose based medium was exchanged for Galactose based medium (glucose-free DMEM (Gibco) with the same supplementation and in addition, 5 mM galactose (Sigma-Aldrich)). All cells were assessed between passage 6-10.
The ATP protocol is generally as described in Mortiboys et al 2008. Briefly, fibroblasts were cultured as and plated into white 384 well plates at a concentration of 5000 cells per well in 50 μl of media volume. The plates are left overnight in an incubator to allow the fibroblasts to adhere to the plate surface. The following morning the Glucose based medium is replaced with 25 μl of Galactose based medium. The plates were then spiked with the compounds using a ECHO 550 liquid handling system. The wells were dosed to provide an 8-point concentration range of 0.06 nM-300 nM of compound. After dosing the wells are topped up with a further 25 μl of Galactose based medium and then left in an incubator for 24 hours. Following this incubation, the medium is removed from the plate and the wells are washed twice with sterile PBS. The wells are filled with 25 μl of Sterile PBS followed by 12.5 μl of Lysis solution from the ATPlite™ Luminescence ATP detection assay system (Perkin Elmer), including 16 cell free wells to use as blank controls. The plate is then placed on a rotary shaker for 5 mins at 700 rpm. Following the shaking 12.5 μl of ATP substrate solution (Perkin Elmer) is added to each well and a further 5 min of shaking. The plate is then placed in darkness for 10 minutes prior to reading. Using a PHERAStar® plate reader, luminescence intensity is recorded. Following the ATP assay the plates are immediately assayed for DNA content in a CyQUANT® assay.
(§5) Immediately following The ATP assay DNA content is assessed with the CyQUANT® NF Cell Proliferation Assay Kit (ThermoFisher). CyQUANT® buffer is prepared immediately before the assay and is comprised of 1 μl CyQUANT® dye per ml×1 HBSS solution. 12.5 μl of CyQUANT® buffer is added to each well. Plate left in incubator for 1 hour then read on a PHERAStar© Plate reader with excitation at 497 nm and emission at 520 nm.
ATP Quantification for each well is determined using the following formula: […]
After the assays had been repeated in triplicate per line and compound the data was then inputted into Graph pad Prism 7 software suite where a dose response curve is generated using the default “[Agonist] vs response(three parameters)” equation.
From this EC50 values, lowest response and maximal response were taken and used to calculate the Geometric mean between the 5 different lines assessed.

[3] = system: iNeurons from sPD patients; experiment: Cellular ATP in iNeurons (dopaminergic neurons derived from sPD patients); details: for EC50: Homo sapiens, Neuron, sPD patient iNeurons, dosing every 3 days for last 12 days of differentiation; for ATP normalisation (% of controls): sPD patient iNeurons treated, untreated sPD patients 50
Method: as §1, §2, §3

[4] = system: iNeurons from sPD patients; experiment: Mitochondrial reactive oxygen species (ROS) in iNeurons from sPD patients; details: sPD patient iNeurons treated; untreated sPD patients 115
Method: as §1, §2, §3

[5] = system: sporadic PD patient fibroblasts; experiment: Mitochondrial membrane potential (MMP, TMRM) in sporadic PD patient fibroblasts; details: Homo sapiens, Fibroblast, 24 h, 3 sporadic PD patient fibroblasts
Method: as §4
Fibroblasts were cultured and plated into a greiner black 384 μClear® plate at a concentration of 1000 cells per well in 50 μl of media volume. The plates are left overnight in an incubator to allow the fibroblasts to adhere to the plate surface. The following morning the Glucose based medium is replaced with 25 μl of Galactose based medium. The plates were then dosed with the compounds using an ECHO® 550 liquid handling system. The wells were dosed to provide an 8-point concentration range of 0.06 nM-300 nM of compound. After dosing the wells are topped up with a further 25 μl of Galactose based medium and then left in an incubator for 24 hours. After 24 hours, the medium is removed from the wells and replaced with 25 μl phenol free Minimal essential medium supplemented with 10% FBS, 1% Penicillin-streptomycin, 1% sodium pyruvate, 0.1% uridine, 1% non-essential amino acids and 1% MEM vitamins with 80 nM TMRM (Sigma) and 10 μM Hoechst Stain (Sigma). The plate is returned to the incubator for another hour after which the stain medium is removed and replaced with 25 μl Phenol free MEM. The plate is then imaged using an IN Cell high content microscope (GE Healthcare) with fields of view per well in 2 channels, Cy3 excitation 542 nm, emission 604-64 nm; and the DAPI excitation 350 nm, emission 450-55 nm at 37° C. with CO2. After imaging the plate is disposed of and the images are Data mined using the INCell developer Toolkit (GE Healthcare).
After the assays had been repeated in triplicate per line and compound the data was then inputted into Graph pad Prism 7 software suite where a dose response curve is generated using the default “[Agonist] vs response(three parameters)” equation. […]

[6] = system: sporadic PD patient fibroblasts; experiment: Cellular ATP levels in sporadic PD patient fibroblasts, Preliminary ATP assay; details: Homo sapiens, Fibroblast, 24 h, % of vehicle treated sPD fibroblasts, 3 sporadic PD patients
Method: In some cases, a preliminary ATP protocol was used in which EC50 was not determined. The preliminary ATP protocol is generally as described in Mortiboys et al 2008. Briefly, fibroblasts were cultured and plated into white, clear-bottom 384 well plates at a concentration of 4000 cells per well in 50 μl of media volume. The plates are left overnight in an incubator to allow the fibroblasts to adhere to the plate surface. The following morning the Glucose based medium is replaced with 25 μl of Galactose based medium. The cells were then dosed with 100 nM and 1 μM concentrations of the compounds using a ECHO 550 liquid handling system. After dosing the wells are topped up with a further 25 μl of Galactose based medium and then left in an incubator for 24 hours. Following this incubation, the medium is removed from the plate and the wells are washed twice with sterile PBS. The wells are filled with 20 μl of Sterile PBS followed by 10 μl of Lysis solution from the ATPlite™ Luminescence ATP detection assay system (Perkin Elmer), including 14 cell free wells to use as blank controls. The plate is then placed on a rotary shaker for 10 mins at 700 rpm. Following the shaking 10 μl of ATP substrate solution (Perkin Elmer) is added to each well and a further 5 min of shaking. The plate is then incubated in the dark for 10 minutes prior to reading. Using a FLUOstar® Omega plate reader, luminescence intensity is recorded. Following the ATP assay the plates are immediately assayed for DNA content in a CyQUANT® assay.
as §5, with “of 2” for “of 1”, “solution. 10” for “solution. 12.5”, “well. Cell plates were then incubated” for “well. Plate left in incubator”, “hour before being” for “hour then”, “a FLUOStar®” for “a PHERAStar©”
The ATP Quantification for each well is determined as set out above.

[7] = system: iNeurons from sPD patients; experiment: Activated caspase 3 levels (apoptosis) in iNeurons from sPD patients; details: sPD patient iNeurons treated; untreated sPD patients 162
Method: as §1, §2
(§6) Cells are plated into 96 well plates and fixed using 4% paraformaldehyde for 30 minutes. After PBS washes cells are permeabilised using 0.1% Triton™ X-100 for 10 minutes and blocked using 5% goat serum for 1 hour. Cells are incubated with primary antibodies βIII tubulin (Millipore); activated caspase 3 (Cell Signaling); at 4° C. for 16 hours. Cells are washed using PBS-Tween® and incubated with Alexa Fluor™-conjugated secondary antibodies 488 and 568 (Invitrogen) and Hoescht (Sigma) 1 μM prior to imaging. Imaging was performed using the Opera Phenix™ high content imaging system (Perkin Elmer).

[8] = system: iNeurons from sPD patients; experiment: Neuronal morphology (elongation) in iNeurons from sPD patients; details: sPD patient iNeurons treated; untreated sPD patients 48
Method: as §1, §2, §6
iNeurons were treated every 3 days for the last 12 days of the differentiation protocol. […] Mitochondrial reactive oxygen species generation was assessed using mitochondrial NpFR2 (probe; a kind gift from Dr Liz New, University of Sydney, Australia) at 20 μM and Hoechst stain solution at 1 μM for 30 mins at 37° C., then the dyes are removed and cells images using Opera Phenix™. Images generated from the live imaging experiments were analysed using Harmony® (Perkin Elmer software). […] We only analysed the z projection images collected from the z stacks.

| Structure (SMILES) | EC50 [1] [nM] | MMP normalisation (% of controls) [1] | EC50 ([2]; 8-point range 0.06 nM-300 nM) [nM] | Emax at 0.3 µM ([2]; max response with highest dose of compound (300 nM), read-out: ATP % of vehicle, top %) [%] | activity at 60 pM ([2]; max response with lowest dose of compound (0.06 nM), read-out: ATP % of vehicle, bottom %) [%] | EC50 [3] [nM] | ATP normalisation (% of controls) [3] | ROS normalisation (% of controls) [4] | EC50 ([5]; 8-point range 0.06 nM-300 nM) [nM] | Emax ([5]; max response with highest dose of compound (300 nM), read-out: MMP % of vehicle, top %) [%] | activity at 60 pM ([5]; max response with lowest dose of compound (0.06 nM), read-out: MMP % of vehicle, bottom %) [%] | activity at 0.1 µM ([6]; 100 nM, read-out: Average ATP Response 100 nM) [%] | activity at 1 µM ([6]; 1 μM, read-out: Average ATP Response 1 μM) [%] | Activated caspase 3 levels [7] | Neuronal morphology (elongation; % controls) [8] [% controls] |
| --- | --- | --- | --- | --- | --- | --- | --- | --- | --- | --- | --- | --- | --- | --- | --- |
| C[C@H](CCC(=O)O)[C@H]1CC[C@H]2[C@@H]3[C@@H](O)C[C@@H]4CNCC[C@]4(C)[C@H]3CC[C@]12C.Cl [Compound 28a, 3-Aza-7β-hydroxy-5β-cholan-24-oic acid hydrochloride salt] | 10.3 | 71 % of controls | 10.9 | 137 | 98.3 | 6.5 | 89.6 % of controls | 111 % of controls | 4.58 | 120 | 96.8 | – | – | – | – |
| C[C@H](CCC(=O)O)[C@H]1CC[C@H]2[C@@H]3[C@@H](O)C[C@@H]4C[C@H](O)CC[C@]4(C)[C@H]3CC[C@]12C [UDCA, ursodeoxycholic acid, reference compound] | 7.3 | 73 % of controls | – | – | – | 5 | 82 % of controls | 110 % of controls | – | – | – | 105 | 98.9 | 143 % of level in iNeurons from Controls | 64 |
